In test [1] the test system is MM.1S cells. Briefly: Cell cycle analysis by PI staining and flow cytometry. In kind it is cell-based, human. Conditions: 10 μM, 48 h. On the procedure: GraphPad Prism (GraphPad Software). […]
Biotech), resuspended in 1 mL EtOH/D PBS (7/3 v/v), and fixed for 30 min at 4 °C. The samples were rehydrated with DPBS and treated with 5 µg /mL RNAse ( Catalog# EN0531 , ThermoFisher Scientific Inc.) for 15 min at room temperature. The staining was performed with 3 µM propidium iodide (in DPBS) for 15 min at room temperature and analyzed by flow cytometry ( Guava easyCyteTM, Luminex, […]
Lakes, NJ, USA), using the Watson Pragmatic algorithm.[6] GraphPad Prism (GraphPad Software) was used for normalization, statistical analysis, and bar graph creation. Significance testing was performed with a one-way analysis of variance (ANOVA). Dunnett’s post-hoc test was employed to obtain […]
Final DMSO concentration was 0.1%.
Staining was performed with
Fluorescence was measured by flow cytometry (Guava® easyCyteTM, Luminex, Austin, Texas). GraphPad Prism (GraphPad Software) was used for normalization, statistical analysis, and bar graph creation. Significance testing was performed with a one-way analysis of variance (ANOVA).
Subsequently, cells were harvested and […]
After 30 minutes of incubation at […]
Dunnett’s post-hoc test was employed

In test [2] the target is T1, HDAC6 (Homo sapiens, UniProt Q9UBN7).
T1 sequence (Q9UBN7 1-1215): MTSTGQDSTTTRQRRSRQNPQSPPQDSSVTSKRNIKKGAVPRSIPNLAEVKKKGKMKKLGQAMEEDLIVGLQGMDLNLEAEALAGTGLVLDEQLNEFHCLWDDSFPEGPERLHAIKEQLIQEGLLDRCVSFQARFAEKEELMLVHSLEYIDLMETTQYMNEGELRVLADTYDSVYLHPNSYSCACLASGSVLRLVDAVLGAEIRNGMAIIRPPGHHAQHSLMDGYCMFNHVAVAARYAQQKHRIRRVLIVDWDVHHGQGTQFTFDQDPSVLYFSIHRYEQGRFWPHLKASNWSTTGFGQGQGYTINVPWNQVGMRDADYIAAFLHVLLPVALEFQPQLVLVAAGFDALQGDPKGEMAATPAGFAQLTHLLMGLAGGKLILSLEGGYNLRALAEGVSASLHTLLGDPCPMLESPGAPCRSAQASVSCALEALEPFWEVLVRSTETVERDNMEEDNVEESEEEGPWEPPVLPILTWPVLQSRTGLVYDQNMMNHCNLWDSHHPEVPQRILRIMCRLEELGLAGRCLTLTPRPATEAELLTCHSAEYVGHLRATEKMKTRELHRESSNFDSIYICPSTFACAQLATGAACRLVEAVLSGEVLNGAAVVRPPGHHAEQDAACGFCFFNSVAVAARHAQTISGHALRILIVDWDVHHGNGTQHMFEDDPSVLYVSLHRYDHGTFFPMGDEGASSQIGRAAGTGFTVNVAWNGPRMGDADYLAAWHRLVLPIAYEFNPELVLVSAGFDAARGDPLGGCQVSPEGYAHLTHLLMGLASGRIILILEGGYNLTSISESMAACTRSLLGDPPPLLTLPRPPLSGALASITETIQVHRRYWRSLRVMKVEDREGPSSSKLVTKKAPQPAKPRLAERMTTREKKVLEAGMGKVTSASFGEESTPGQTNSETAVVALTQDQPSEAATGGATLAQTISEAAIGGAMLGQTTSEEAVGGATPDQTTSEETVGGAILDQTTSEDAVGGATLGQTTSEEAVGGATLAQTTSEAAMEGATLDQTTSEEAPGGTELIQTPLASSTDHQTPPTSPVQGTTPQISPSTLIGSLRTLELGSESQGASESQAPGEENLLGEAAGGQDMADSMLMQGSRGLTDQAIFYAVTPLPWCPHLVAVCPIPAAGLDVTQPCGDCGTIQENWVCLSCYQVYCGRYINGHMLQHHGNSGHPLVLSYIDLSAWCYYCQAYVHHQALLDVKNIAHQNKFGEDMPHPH
Briefly: Immunoblot HDAC6 degradation in MM.1S cell lysates. In kind it is cell-based. The arrangement: endogenous in cells; host or cells: MM.1S. The conditions noted are these: MM1.S, MM.1S cells, 24 h, read-out: maximal degradation (Dmax) HDAC6. On the procedure:
Figure 6 Examination of HDAC isoform degradation. MM.1S cells were treated with the indicated compounds (10 μM) or vehicle (DMSO) for 24 h. HDAC1, 2, 4, and 6 levels were analyzed by immunoblotting. (A) Representative images from a total of n=3 biological replicates.
2.5. Aqueous Stability Assay
For stability testing in aqueous solution, a 10-fold concentrated DMSO solution of the respective compounds was diluted in DPBS to generate a 10 µM concentration (final DMSO content of 10%).
Samples of the aqueous solutions were taken after 0, 24, 48, and 72 h at room temperature and the amounts of the parental compound and potential fragments were monitored by HPLC gradient A (see 3.1 General Information). The peak area of the 0 h sample was used for normalization. All compounds were tested in duplicates and GraphPad Prim was used for evaluation and data visualization.
The cell lysis was performed as descripted in 3.2. Simple Western Immunoassay. Samples were denatured by Laemmli 2× Concentrate (Catalog# S3401-10VL, Sigma-Aldrich) for 5 min at 95 °C, and […]
Bio-Rad, Hercules, CA, USA). […]
6.1 (Bio-Rad) for quantification. […]
In vitro inhibitory activities against HDAC1, 2 , and 6 were measured using a previously published protocol.[3] In vitro inhibitory activities against HDAC4 were measured using a previously published protocol with slight modifications. […]

Broadly, the Dmax is the greatest extent of degradation seen.

As to `O=C(CCCCCCNC(=O)c1ccc(NC(=O)CCCCCCCCCCCN(C(=O)CCl)C(C(=O)NCc2ccccc2)c2ccc(Cl)c(Cl)c2)cc1)NO` (stereo not shown) [Compound 1j], the “effect on cell cycle phases” value in test [1] is “increase of the sub G1 phase, while the S phase was decreased”. The Dmax at 10 µM in test [2] fell in the range of 71 to 76%.

Regarding `O=C(CCCCCCNC(=O)c1ccc(N(C(=O)CCl)C(C(=O)NCc2ccccc2)c2ccc(Cl)c(Cl)c2)cc1)NO` (stereo not shown) [Compound 2], the “effect on cell cycle phases” value in test [1] is recorded as “increase of the sub G1 phase, while the S phase was decreased”. Further, in test [2], the Dmax at 10 µM was found to be 26%.

The record behind these values is PMC12091851, “Replacing a Cereblon Ligand by a DDB1 and CUL4 Associated Factor 11 (DCAF11) Recruiter Converts a Selective Histone Deacetylase 6 PROTAC into a Pan‐Degrader” (Chemmedchem, 2025).
